We go through ten compounds from PubChem BioAssay (NCI).

Among the test systems are M14 melanoma; SF-268 CNS; NCI-H460 lung; NCI-H23 lung; MDA-MB-435; K-562 leukemia; HCT-15 colon; NCI/ADR-RES ovarian; OVCAR-8 ovarian; U251 CNS; SW-620 colon; COLO 205 colon; OVCAR-4 ovarian.
What all share (assay): NCI anticancer screen, dose series, 48 h

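Assay format: 96-well plates, 48-hour exposure. TGI denotes the concentration required for complete inhibition of growth.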 Where a SMILES comes first, the peptide text is derived from it. The star is where a group is joined. Cbz = O=C(OCc1ccccc1)*

With `CCOP(=O)(OCC)/C(C#N)=C/c1ccc(-c2cc(C(F)(F)F)cc(C(F)(F)F)c2)o1`, the TGI came to 23.1 µM with M14 melanoma; 33.3 µM with SF-268 CNS; 19.1 µM in the experiment on NCI-H460 lung; 31.1 µM in the experiment on NCI-H23 lung; 29 µM in the experiment on MDA-MB-435; 13.8 µM with K-562 leukemia. The TGI came out at 20.7 µM in the experiment on HCT-15 colon; 23.6 µM with NCI/ADR-RES ovarian; 32 µM with OVCAR-8 ovarian; 24.4 µM with U251 CNS; 28.2 µM in the experiment on SW-620 colon; 27.4 µM in the experiment with COLO 205 colon.

On to `O=Cc1ccc(-c2ccc(-c3ccc(CO)s3)o2)s1`, for which the TGI was above 70.6 µM in the experiment on M14 melanoma; above 76.1 µM with SF-268 CNS; above 100 µM in the experiment with OVCAR-4 ovarian; 3.21 µM in the experiment with NCI-H460 lung; above 76.7 µM in the experiment on NCI-H23 lung; above 49.3 µM in the experiment with MDA-MB-435. Further, the TGI with K-562 leukemia is above 22.2 µM; with HCT-15 colon, above 100 µM; in the experiment on NCI/ADR-RES ovarian, 40.4 µM; in the experiment on OVCAR-8 ovarian, 49 µM; in the experiment with U251 CNS, above 42.1 µM; in the experiment on SW-620 colon it was above 100 µM. Besides, the TGI in the experiment on COLO 205 colon was above 85.7 µM.

In the case of `CCCCCCc1cc2cc(C(=O)Nc3ccc(F)cc3)c(=N)oc2cc1O`, the TGI was 13.2 µM in the experiment on M14 melanoma; 5.61 µM in the experiment with SF-268 CNS; 23.2 µM with OVCAR-4 ovarian; above 100 µM with NCI-H460 lung; 4.6 µM in the experiment with NCI-H23 lung; 10.1 µM with MDA-MB-435. Besides, the TGI in the experiment with K-562 leukemia was 12.3 µM; in the experiment on HCT-15 colon it was 7.62 µM; in the experiment on NCI/ADR-RES ovarian it was 8.94 µM; in the experiment with OVCAR-8 ovarian it was 3.75 µM; in the experiment with U251 CNS, 8.64 µM; with SW-620 colon it was above 100 µM. In the experiment on COLO 205 colon, this compound yielded a TGI above 100 µM.

Take `COc1ccc(C2c3cc4c(cc3OC(N3CCOCC3)C2C)OCO4)cc1` (stereo unspecified): the TGI with M14 melanoma was above 89 µM; with SF-268 CNS, above 100 µM; in the experiment on OVCAR-4 ovarian it was above 100 µM; with NCI-H460 lung, above 100 µM; with NCI-H23 lung, above 100 µM; with MDA-MB-435, above 60.4 µM. The TGI in the experiment with K-562 leukemia is above 31.6 µM; with HCT-15 colon it was above 100 µM; in the experiment with NCI/ADR-RES ovarian, above 91.2 µM; in the experiment on OVCAR-8 ovarian it was above 100 µM; with U251 CNS, 68.1 µM; with SW-620 colon, above 100 µM. Further, the TGI in the experiment on COLO 205 colon is above 100 µM.

As to `COc1ccc(N2C(=O)C(=O)N(c3ccc(N=Nc4ccccc4)cc3)C2=S)cc1`, the TGI in the experiment with SF-268 CNS is 44.4 µM; in the experiment with OVCAR-4 ovarian, 37.7 µM; in the experiment on NCI-H460 lung it was 34.1 µM; in the experiment on NCI-H23 lung, 34.9 µM; in the experiment on MDA-MB-435, 48.9 µM; with K-562 leukemia, above 100 µM. For the same compound, the TGI in the experiment on HCT-15 colon amounted to 32.4 µM; in the experiment on NCI/ADR-RES ovarian, 35.9 µM; in the experiment with OVCAR-8 ovarian, 35.6 µM; in the experiment with U251 CNS it was 32.6 µM; in the experiment with SW-620 colon, 32.6 µM; with COLO 205 colon, 31.4 µM.

As to `C=C1CCCCCCCCC/C=C/1SCCCSC`, the TGI in the experiment on M14 melanoma, in the experiment on SF-268 CNS, in the experiment with OVCAR-4 ovarian, with NCI-H460 lung, in the experiment with NCI-H23 lung and with MDA-MB-435 was above 100 µM each time. The TGI in the experiment with K-562 leukemia, with HCT-15 colon, in the experiment with NCI/ADR-RES ovarian, in the experiment on OVCAR-8 ovarian, in the experiment with U251 CNS and in the experiment with SW-620 colon was above 100 µM in each case. This compound displayed a TGI in the experiment with COLO 205 colon above 100 µM.

For the compound `NC1(CCNC(=O)c2ccccc2)CCN(C(=O)c2ccccc2)CC1`, the TGI in the experiment with M14 melanoma, with SF-268 CNS, in the experiment with NCI-H460 lung, with NCI-H23 lung, with MDA-MB-435 and in the experiment with K-562 leukemia was above 100 µM throughout. Also, the TGI in the experiment with HCT-15 colon, with NCI/ADR-RES ovarian, with OVCAR-8 ovarian, with U251 CNS, in the experiment with SW-620 colon and with COLO 205 colon was above 100 µM throughout.

As for `CCOC(=O)CCC(NC(=O)C(Cc1ccccc1)NC(=O)OCc1ccccc1)C(=O)OCC` (stereo not drawn) (Cbz-Phe-Glu(OEt)-OEt; configuration not given here), the TGI in the experiment on M14 melanoma was 29.3 µM; in the experiment on SF-268 CNS, 34.5 µM; in the experiment with OVCAR-4 ovarian it was 32.1 µM; in the experiment on NCI-H460 lung, 38.5 µM; in the experiment on NCI-H23 lung, 33.1 µM; with MDA-MB-435, 35.5 µM. The TGI in the experiment on K-562 leukemia was above 100 µM; in the experiment on HCT-15 colon it was 41.6 µM; with NCI/ADR-RES ovarian, 42 µM; in the experiment with OVCAR-8 ovarian it was 36.2 µM; with U251 CNS, 28.9 µM; in the experiment on SW-620 colon it was 34.9 µM. The compound also had a TGI in the experiment with COLO 205 colon of 35.3 µM.

For the compound `CN1CC=C(c2c(N)nc(N)[nH]c2=O)CC1`, the TGI in the experiment with M14 melanoma, in the experiment with SF-268 CNS, in the experiment on OVCAR-4 ovarian, in the experiment on NCI-H460 lung, with NCI-H23 lung and with MDA-MB-435 was above 100 µM in each case. Also, the TGI with K-562 leukemia, in the experiment on HCT-15 colon, with NCI/ADR-RES ovarian, in the experiment on OVCAR-8 ovarian, in the experiment on U251 CNS and in the experiment with SW-620 colon was above 100 µM each time. In addition, the TGI in the experiment on COLO 205 colon was above 100 µM.

As to `Cc1ccc(S(=O)(=O)C2=C(C(C)C)N=NC2(C)C)cc1`, the TGI in the experiment on M14 melanoma, in the experiment on SF-268 CNS, in the experiment with OVCAR-4 ovarian, in the experiment with NCI-H460 lung, with NCI-H23 lung and in the experiment with MDA-MB-435 was above 100 µM in each case. Besides, the TGI in the experiment on K-562 leukemia, in the experiment with HCT-15 colon, in the experiment on NCI/ADR-RES ovarian, with OVCAR-8 ovarian, in the experiment on U251 CNS and in the experiment on SW-620 colon was above 100 µM in each case.
